Measurements: patent US6031004A, “Salts of metformin and method” (Bristol-Myers Squibb Company, priority 1999, dated 2000)
Structures can show the parent of a compound that is named as a salt. Where two headings read alike, the source gives them in different places.

Columns and labels:
[1] = hygroscopicity / moisture uptake at 95% relative humidity by Dynamic Vapour Sorption (DVS); type: physicochemical; settings: for % moisture uptake, 30 min / % moisture uptake, 70 min / % moisture uptake, 3 hours / % moisture uptake, 6 hours: DVS; for moisture uptake equilibrium reached or not: at the last time point (6 hours; 30 min for succinate)
Method: The following experiment was carried out to determine moisture sorption/desorption profiles of metformin (2:1) fumarate salt and metformin (2:1) succinate salt compared to the moisture uptake properties of metformin hydrochloride salt.
The hygroscopicity of metformin salts was assessed by Dynamic Vapour Sorption (DVS), a means of rapidly assessing sample moisture uptake properties. […] […] The weight increase of sample at each condition is recorded until a defined minimal rate of mass change is reached or a specified time period for equilibrium exceeded.

[2] = compaction susceptibility (tendency of the salt to compact under its own weight); type: physicochemical
[3] = 95% relative humidity/25° C., hydrochloride

## CN(C)C(=N)NC(=N)N [metformin (2:1) succinate]
[1]; 95% relative humidity at 25° C., 30 minutes
  equilibrium moisture content after 30 minutes (summary): 0.27%
[1]; 95% relative humidity/25° C.
  % moisture uptake, 30 min: 0.27%
  hygroscopicity, moisture uptake at 6 hours: less than 7 % moisture uptake
  moisture uptake equilibrium reached or not: reach equilibrium
[1]; 95% relative humidity/25° C., 30 minutes
  hygroscopicity, moisture uptake at 30 minutes: less than 1 % moisture uptake
[2]
  compaction susceptibility: low compaction susceptibility

## CN(C)C(=N)N=C(N)N [metformin hydrochloride, reference compound]
[1]; 95% relative humidity at 25° C., hydrochloride
  moisture content after 6 hours (summary): 20%
[1]; [3]
  % moisture uptake, 30 min: 1.2%
  % moisture uptake, 70 min: 3.3%
  % moisture uptake, 3 hours: 10.0%
  % moisture uptake, 6 hours: 20.1%
  hygroscopicity, moisture uptake at 6 hours: greater than 20 % moisture uptake
[1]; 95% relative humidity/25° C.
  moisture uptake equilibrium reached or not: did not reach equilibrium
[1]; vs metformin (2:1) fumarate and succinate salts, 95% relative humidity
  moisture absorbed compared to the metformin (2:1) fumarate and succinate salts: substantially greater amounts of moisture
[2]; hydrochloride
  compaction susceptibility: high compaction susceptibility

## CN(C)C(=N)N=C(N)N [metformin (2:1) fumarate]
[1]; 95% relative humidity at 25° C.
  moisture content after 6 hours (summary): 6.6%
[1]; 95% relative humidity/25° C.
  % moisture uptake, 30 min: 1.0%
  % moisture uptake, 70 min: 2.0%
  % moisture uptake, 3 hours: 4.1%
  hygroscopicity, moisture uptake at 6 hours: less than 7 % moisture uptake
  % moisture uptake, 6 hours: 6.6%
[2]
  compaction susceptibility: low compaction susceptibility
